Assays:
[1] = Stability in plasma in vitro (HPLC); type: in vitro ADME, human
Procedure: (§1) (FIG. 44). […] (FIG. 44).
(§2) Human blood plasma or nude mice plasma (300 μl) containing dEpoB (0.05-20 μg/ml) was added 30 μl of methanol and mixed for 2 min and then added 300 μl of methanol. The centrifuge supernatant was used for high performance liquid chromatography (HPLC). Nova-pak C18 column (15 cm) was used, with 50% acetonitrile/water with 0.8% triethylamine and 0.2% phosphoric acid as mobile phase. UV absorbance at 250 nm was measured.
(§3) Stability of dEpoF in animal plasmas. A HPLC method is set up using a NovaPak C 18, 3.9×300 mm column with a mobile phase of 50% acetonitrile in 50 mM potassium dihydrogen phosphate with 0.01% triethylamine at a flow rate of 0.8 ml/min. dEpoF is monitored at a wavelength of 260 nm and has a retention time of about 10 min. The plasma stability is performed with mouse plasma and dog plasma purchased from Pel-Freeze and human plasma from the blood center in MSKCC. A small amount of dEpoF was dissolved in 50% methanol/water at a concentration of 500 μg/mL. An aliquot of 20 μL is then spiked to 2 mL of plasma to a final plasma concentration of 5 μg/mL. The plasma samples were kept at 37 degree. […] Twenty μL of the supernatant was analyzed by HPLC without further modification. dEpoF disappears rapidly with half life about one hour in the commercial frozen mouse plasma alone, but stable in dog and human plasma.

[2] = Stability in plasma in vitro (HPLC); type: in vitro ADME, mouse
Procedure: as §1, §2, §3

[3] = system: CCRF-CEM/VBL; experiment: Relative potency in vitro, very highly resistant MDR cells; type: cell-based, human; conditions: for IC50: Homo sapiens, CCRF-CEM, read-out: CCRF-CEM/VBL IC50 in μM; for Fold of Resistance (B)/(A): [IC50 CCRF-CEM/VBL]/[IC50 CCRF-CEM]
Procedure: The cells were cultured at an initial density of 2-5×10^4 cells per ml. They were maintained in a 5% CO2-humidified atmosphere at 37° C. in RPMI mediun 1640 (GIBCO/BRL) containing penicillin (100 units/ml), streptomycin (100 μg/ml) (GIBCO/BRL), and 5% heat-inactivated fetal bovine serum. For solid tumor cells growing in a monolayer (such as MCF-7/Adr), cytotoxicitiy of the drug was determined in 96-well microtiter plates by using the sulforhodamine B method as described by Skehan et al (23) for measuring the cellular protein content. For cells that were grown in suspension (such as CCRF-CEM and its sublines), cytotoxicitiy was measured by using the 2,-3-bis(2-methoxy-4-nitro-5-sulfophenyl)-5carboxanilide)-2H terazodium hydroxide (XTT)-microculture tetrazonium method (24) in duplicate in 96-well microtiter plates. For both methods, the absorbance of each well was measured with a microplate reader (EL-340, Bio-Tek, Burlington, Vt.). Each run entailed six or seven concentrations of the tested drugs. Dose-effect relationship data were analyzed with the median-effect plot (25) by using a previously described computer program (26).

[4] = system: MCF-7/Adr mammary xenograft; experiment: Human tumor xenograft in nude mice; type: in vivo
[5] = system: HT-29 colon adenocarcinoma xenograft; experiment: Human tumor xenograft in nude mice; type: in vivo
Method in brief: (§4)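 Male athymic nu/nu mice bearing s.c. flank tumours from 5×10^6 cells or 30-50 mg tissue; dosing began at 35-200 mm^3 as 6 hr tail-vein i.v. infusion every other day ×5 unless otherwise indicated. Caliper tumour volume, body weight and lethality recorded every other day; 3-5 mice per group.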

[6] = system: CCRF-CEM/VBL leukemia xenograft; experiment: Human tumor xenograft in nude mice; type: in vivo; conditions: for Lowest Average Tumor Size (T/C) / Tumor Disappearance: CCRF/VBL, dEpoB 30 mg/kg, Taxol 20 mg/kg, Q2Dx5, 6-hr i.v. infusion
Method in brief: as §4

[7] = system: A549 lung carcinoma xenograft; experiment: Human tumor xenograft in nude mice; type: in vivo
Method in brief: as §4

[8] = system: PC-3 prostate adenocarcinoma xenograft; experiment: Human tumor xenograft in nude mice; type: in vivo
Method in brief: as §4

[9] = system: CCRF-CEM/Taxol leukemia xenograft; experiment: Human tumor xenograft in nude mice; type: in vivo; conditions: for Lowest Average Tumor Size (T/C) / Tumor Disappearance: CCRF/Taxol, dEpoB 30 mg/kg, Taxol 20 mg/kg, Q2Dx5, 6-hr i.v. infusion
Method in brief: as §4

[10] = dEpoB 30 mg/kg, Taxol 24 mg/kg, Q2Dx5, 6-hr i.v. infusion
[11] = HT-29, dEpoB 30 mg/kg, Taxol 15 mg/kg, Q2Dx6, 6-hr i.v. infusion
[12] = A549, dEpoB 40 mg/kg, Taxol 15 mg/kg, Q2Dx3, 6-hr i.v. infusion
[13] = PC-3, dEpoB 40 mg/kg, Taxol 15 mg/kg, Q2Dx3, 6-hr i.v. infusion

SMILES | IC50 [3] [µM] | Fold of Resistance (B)/(A) [3] [x] | Tumor Disappearance [4, 10] | Tumor Disappearance [5, 11] | Lowest Average Tumor Size (T/C) [6] | Tumor Disappearance [6] | Tumor Disappearance [7, 12] | Tumor Disappearance [8, 13] | Lowest Average Tumor Size (T/C) [9] | Tumor Disappearance [9] | also measured
C/C1=C/C[C@@H](/C(C)=C/c2csc(CO)n2)OC(=O)C[C@H](O)C(C)(C)C(=O)[C@H](C)[C@@H](O)[C@@H](C)CCC1 [dEpoF, 12,13-Desoxyepothilone F] | 0.287 | 33.6 | – | – | – | – | – | – | – | – | stability in human plasma ([1]; 5 μg/mL, 37 degree): stable; half life in mouse plasma ([2]; commercial frozen mouse plasma, 5 μg/mL, 37 degree): about one; potency relative to dEpoB (times less potent) ([3]; MDR CCRF-CEM/VBL cells): 4.5 ×
CC(=O)O[C@H]1C(=O)[C@@]2(C)[C@H]([C@H](OC(=O)c3ccccc3)[C@]3(O)C[C@H](OC(=O)[C@H](O)[C@@H](NC(=O)c4ccccc4)c4ccccc4)C(C)=C1C3(C)C)[C@]1(OC(C)=O)CO[C@@H]1C[C@@H]2O [Taxol, paclitaxel, reference compound] | – | – | 0/4 | 0/4 | 0.62 | 0/2 | 2/4 | 0/4 | 0.32 | 0/2 | –
C/C1=C/C[C@@H](/C(C)=C/c2csc(C)n2)OC(=O)C[C@H](O)C(C)(C)C(=O)[C@H](C)[C@@H](O)[C@@H](C)CCC1 [dEpoB, 12,13-desoxyepothilone B] | 0.637 | 8.6 | 0/3 | 0/3 | 0 | 2/2 | 1/3 | 0/3 | 0 | 3/3 | period of stability in human plasma in vitro ([1]; human plasma, HPLC): over 3 hrs; Lowest Average Tumor Size (T/C) [4, 10]: 0.11; Therapeutic Effect Rank Order ([4]; i.p., ref 19 (Table 5)): dEpoB>Camptothecin>Adriamycin>Taxol; Therapeutic Effect Rank Order ([4]; i.v. infusion): dEpoB>>VP-16, Taxol>VBL, Adriamycin; half-life ([2]; nude, mouse, plasma, nude mice plasma, HPLC, read-out: t1/2 in nude mice plasma in vitro): ~20 min; Therapeutic Effect Rank Order ([5]; HT-29, i.v. infusion): Taxol>dEpoB; Lowest Average Tumor Size (T/C) [5, 11]: 0.02; Therapeutic Effect Rank Order ([6]; CCRF-CEM/VBL, i.v. infusion): dEpoB>>>Taxol; Therapeutic Effect Rank Order ([7]; A549, i.v. infusion): Taxol, dEpoB, VBL>VP-16; Lowest Average Tumor Size (T/C) [7, 12]: 0.01; Therapeutic Effect Rank Order ([8]; PC-3, i.v. infusion): Taxol, VBL>dEpoB>>VP-16; Therapeutic Effect Rank Order ([8]; PC-3, i.v. or i/p.): Taxol>dEpoB>>Adriamycin; Therapeutic Effects dEpoB vs Taxol ([8]; PC-3, dEpoB 40 mg/kg, Taxol 15 mg/kg, Q2Dx3): <<; Lowest Average Tumor Size (T/C) [8, 13]: 0.12; Therapeutic Effect Rank Order ([9]; CCRF-CEM/Taxol, i.v. infusion): dEpoB>>>Taxol

— US6867305B2, “Synthesis of epothilones, intermediates thereto and analogues thereof” (Sloan-Kettering Institute for Cancer Research, priority 1996, dated 2005)
